{"source": "ChEMBL document CHEMBL1649071", "about": "“4-[18F]fluoroglutamic acid (BAY 85-8050), a new amino acid radiotracer for PET imaging of tumors: synthesis and in vitro characterization” (J Med Chem, 2011)", "type_in_all_cases": "ADME, cell-based", "key": {"A549 [1]": {"system": "A549", "assay": "Drug uptake in human A549 cells at 250 kBq by gamma-counting", "conditions": "TDE = time-dependent effect; call rule not given here"}, "HT-29 [2]": {"system": "HT-29", "assay": "Drug uptake in human HT-29 cells at 250 kBq after 20 mins by gamma-counting in presence of L-glutamic acid", "conditions": "ht-29, 20 min"}, "A549 [3]": {"system": "A549", "assay": "Drug uptake in human A549 cells at 250 kBq after 30 mins by gamma-counting in presence of L-glutamic acid", "conditions": "a549, 0.5 h"}, "HT-29 [4]": {"system": "HT-29", "assay": "Drug uptake in human HT-29 cells at 250 kBq after 20 mins by gamma-counting", "conditions": "ht-29, 20 min"}, "A549 [5]": {"system": "A549", "assay": "Drug uptake in human A549 cells at 250 kBq after 30 mins by gamma-counting", "conditions": "a549, 0.5 h"}, "A549 [6]": {"system": "A549", "assay": "Drug uptake in human A549 cells at 250 kBq after 20 mins by gamma-counting", "conditions": "a549, 20 min"}, "A549 [7]": {"system": "A549", "assay": "Drug uptake in human A549 cells at 250 kBq after 30 mins by gamma-counting in presence of D-glucose", "conditions": "a549, 0.5 h"}, "HT-29 [8]": {"system": "HT-29", "assay": "Drug uptake in human HT-29 cells at 250 kBq after 20 mins by gamma-counting in presence of D-glucose", "conditions": "ht-29, 20 min"}}, "data": [{"compound": "N[C@@H](CC([18F])C(=O)O)C(=O)O", "note": "(stereo not given in full)", "values": [{"measurement": "Drug uptake", "setting": "A549 [1]", "value": "tde"}, {"measurement": "Drug uptake", "setting": "HT-29 [2]", "value": "Not Active"}, {"measurement": "Drug uptake", "setting": "A549 [3]", "value": "Not Active"}, {"measurement": "Drug uptake", "setting": "HT-29 [4]", "value": 4, "unit": "%"}, {"measurement": "Drug uptake", "setting": "A549 [5]", "value": 12, "unit": "%"}, {"measurement": "Drug uptake", "setting": "A549 [6]", "value": 9.3, "unit": "%"}]}, {"compound": "N[C@@H](C[C@H](F)C(=O)O)C(=O)O", "values": [{"measurement": "Drug uptake", "setting": "A549 [5]", "value": "Active"}]}, {"compound": "N[C@@H](C[C@@H](F)C(=O)O)C(=O)O", "values": [{"measurement": "Drug uptake", "setting": "A549 [5]", "value": "Active"}]}, {"compound": "OC[C@H]1O[C@@H](O)[C@H]([18F])[C@@H](O)[C@@H]1O", "note": "[FLUDEOXYGLUCOSE-F18]", "values": [{"measurement": "Drug uptake", "setting": "A549 [7]", "value": "Not Active"}, {"measurement": "Drug uptake", "setting": "HT-29 [8]", "value": "Not Active"}]}]}
